In patent US20200347043A1, “MODULATORS OF THE INTEGRATED STRESS PATHWAY” (Calico Life Sciences LLC, priority 2019, published 2020):

System: HEK293T cells carrying the ATF4 luciferase reporter
Assay: ATF4-Luc assay (in vitro model of VWMD)
Type: cell-based, human
Conditions: Homo sapiens, HEK-293T, 1 μg/mL tunicamycin, 7 hours, One Glo luminescence
Outline: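 Tunicamycin (1 μg/mL) stress with co-added compound for 7 hours in HEK293T cells stably carrying an ATF4 5′-UTR–luciferase reporter. EC50 values come from the luminescent signal (One Glo).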

| SMILES | EC50 |
| --- | --- |
| O=C(N[C@H]1CC[C@H](N2CCN(c3ccc(C(F)(F)F)nc3)C2=O)CC1)[C@@H]1C[C@@H](O)c2cc(Cl)ccc2O1 [Compound 309, (2S,4R)-6-chloro-4-hydroxy-N-[trans-4-{2-oxo-3-[6-(trifluoromethyl)pyridin-3-yl]imidazolidin-1-yl}cyclohexyl]-3,4-dihydro-2H-1-benzopyran-2-carboxamide] | > 2000 nM |
| O=C(NC12CC(c3cc(-c4ccc(Cl)cc4)no3)(C1)C2)[C@H]1C[C@@H](O)c2cc(Cl)ccc2O1 [Compound 246, (2R,4R)-6-chloro-N-{3-[3-(4-chlorophenyl)-1,2-oxazol-5-yl]bicyclo[11.11]pentan-1-yl}-4-hydroxy-3,4-dihydro-2H-1-benzopyran-2-carboxamide] | 10 to 50 nM |
| O=C1C[C@H](C(=O)N[C@H]2CC[C@H](N3CCN(C4CC(OC(F)(F)F)C4)C3=O)CC2)Oc2ccc(Cl)cc21 (stereo partly drawn) [Compound 188, (2R)-6-chloro-4-oxo-N-[(1r,4R)-4-{2-oxo-3-[3-(trifluoromethoxy)cyclobutyl]imidazolidin-1-yl}cyclohexyl]-3,4-dihydro-2H-1-benzopyran-2-carboxamide] | > 2000 nM |
| O=C(COc1ccc(Cl)c(F)c1)NC1CC2(C1)CN(C(=O)C1CC(=O)c3cc(Cl)ccc3O1)C2 (stereo not shown) [Compound 144, 2-(4-chloro-3-fluorophenoxy)-N-[2-(6-chloro-4-oxo-3,4-dihydro-2H-1-benzopyran-2-carbonyl)-2-azaspiro[3.3]heptan-6-yl]acetamide] | 50 to 250 nM |
| O=C(NC12CC(n3cc(-c4ccc(OC(F)(F)F)cc4)cn3)(C1)C2)[C@H]1C[C@@H](O)c2cc(Cl)ccc2O1 [Compound 302, (2R,4R)-6-chloro-4-hydroxy-N-(3-{4-[4-(trifluoromethoxy)phenyl]-1H-pyrazol-1-yl}bicyclo[1.1.1]pentan-1-yl)-3,4-dihydro-2H-1-benzopyran-2-carboxamide] | < 10 nM |
| O=C(NC12CC(c3nc([C@H]4C[C@@H](OC(F)(F)F)C4)no3)(C1)C2)[C@@H]1C[C@@H](O)c2cc(Cl)ccc2O1 [Compound 217, (2S,4R)-6-chloro-4-hydroxy-N-(3-{3-[cis-3-(trifluoromethoxy)cyclobutyl]-1,2,4-oxadiazol-5-yl}bicyclo[1.1.1]pentan-1-yl)-3,4-dihydro-2H-1-benzopyran-2-carboxamide] | 50 to 250 nM |
| O=C(CO[C@H]1C[C@@H](OC(F)(F)F)C1)NC12CCC(NC(=O)[C@H]3CC(=O)c4cc(Cl)ccc4O3)(CC1)[C@@H](O)C2 [Compound 223, (2R)-6-chloro-N-[(2S)-2-hydroxy-4-(2-{[cis-3-(trifluoromethoxy)cyclobutyl]oxy}acetamido)bicyclo[2.2.2]octan-1-yl]-4-oxo-3,4-dihydro-2H-1-benzopyran-2-carboxamide] | 10 to 50 nM |
| O=C(NC12CCC(c3nnc([C@H]4C[C@@H](OC(F)(F)F)C4)o3)(CC1)OC2)C1CC(O)c2cc(Cl)ccc2O1 (stereo partly shown) [Compound 165] | 10 to 50 nM |
| Cc1cc(C)cc(OCC2CN(C34CC(NC(=O)[C@H]5C[C@@H](O)c6cc(Cl)ccc6O5)(C3)C4)C(=O)O2)c1 (stereo partly drawn) [Compound 142, (2R,4R)-6-chloro-N-(3-{5-[(3,5-dimethylphenoxy)methyl]-2-oxo-1,3-oxazolidin-3-yl}bicyclo[1.1.1]pentan-1-yl)-4-hydroxy-3,4-dihydro-2H-1-benzopyran-2-carboxamide] | > 2000 nM |
| O=C(COc1ccc(Cl)c(F)c1)NC12CC(C(=O)NC[C@H]3C[C@@H](O)c4cc(Cl)ccc4O3)(C1)C2 (racemic) [Compound 104, 3-[2-(4-chloro-3-fluorophenoxy)acetamido]-N-{[rac-(2R,4R)-6-chloro-4-hydroxy-3,4-dihydro-2H-1-benzopyran-2-yl]methyl}bicyclo[1.1.1]pentane-1-carboxamide] | 10 to 50 nM |
| O=C(CO[C@H]1C[C@@H](OC(F)(F)F)C1)NC12CCC(NC(=O)[C@@H]3C[C@H](O)c4cc(Cl)ccc4O3)(CC1)C[C@@H]2O [Compound 276, (2S,4S)-6-chloro-4-hydroxy-N-[(3S)-3-hydroxy-4-(2-{[cis-3-(trifluoromethoxy)cyclobutyl]oxy}acetamido)bicyclo[2.2.2]octan-1-yl]-3,4-dihydro-2H-1-benzopyran-2-carboxamide] | < 10 nM |
| O=C(N[C@H]1CC[C@H](N2CCN(c3ccc(Cl)c(F)c3)C2=O)CC1)[C@H]1C[C@@H](O)c2cc(Cl)ccc2O1 [Compound 207, (2R,4R)-6-chloro-N-{trans-4-[3-(4-chloro-3-fluorophenyl)-2-oxoimidazolidin-1-yl]cyclohexyl}-4-hydroxy-3,4-dihydro-2H-1-benzopyran-2-carboxamide] | < 10 nM |
| O=C(NC12CC(c3cc(-c4ccc(C(F)(F)F)nc4)on3)(C1)C2)[C@@H]1C[C@@H](O)c2cc(Cl)ccc2O1 [Compound 261, (2S,4R)-6-chloro-4-hydroxy-N-(3-{5-[6-(trifluoromethyl)pyridin-3-yl]-1,2-oxazol-3-yl}bicyclo[1.1.1]pentan-1-yl)-3,4-dihydro-2H-1-benzopyran-2-carboxamide] | 50 to 250 nM |
| O=C1C[C@H](C(=O)NC23CC(NC(=O)[C@@H]4C[C@@H]4COC(F)(F)F)(C2)C3)Oc2ccc(Cl)cc21 (mixture of isomers) [Compound 296, (2R)-6-chloro-4-oxo-N-[3-({(1RS,2SR)-2-[(trifluoromethoxy)methyl]cyclopropane-1-carbonyl}amino)bicyclo[1.1.1]pentan-1-yl]-3,4-dihydro-2H-1-benzopyran-2-carboxamide] | 500 to 2000 nM |
| O=C(N[C@H]1CC[C@H](C(=O)N2CC(c3ccc(Cl)cc3)C2)CC1)[C@H]1C[C@@H](O)c2cc(Cl)ccc2O1 [Compound 174, (2R,4R)-6-chloro-N-{trans-4-[3-(4-chlorophenyl)azetidine-1-carbonyl]cyclohexyl}-4-hydroxy-3,4-dihydro-2H-1-benzopyran-2-carboxamide] | < 10 nM |
| O=C(NC12CC(n3cc(C4CCC4)cn3)(C1)C2)[C@H]1C[C@@H](O)c2cc(Cl)ccc2O1 [Compound 290, (2R,4R)-6-chloro-N-[3-(4-cyclobutyl-1H-pyrazol-1-yl)bicyclo[1.1.1]pentan-1-yl]-4-hydroxy-3,4-dihydro-2H-1-benzopyran-2-carboxamide] | 50 to 250 nM |
| O=C(NC12CC(C3NC(COc4ccc(Cl)c(F)c4)=NO3)(C1)C2)[C@H]1C[C@@H](O)c2cc(Cl)ccc2O1 (stereo partly drawn) [Compound 154, (2R,4R)-6-chloro-N-(3-{3-[(4-chloro-3-fluorophenoxy)methyl]-4,5-dihydro-1,2,4-oxadiazol-5-yl}bicyclo[1.1.1]pentan-1-yl)-4-hydroxy-3,4-dihydro-2H-1-benzopyran-2-carboxamide] | 10 to 50 nM |
| O=C(CO[C@H]1C[C@@H](OC(F)(F)F)C1)NC12CCC(NC(=O)[C@H]3CC(=O)c4cc(Cl)ccc4O3)(CC1)CC2 [Compound 192, (2R)-6-chloro-4-oxo-N-[4-(2-{[cis-3-(trifluoromethoxy)cyclobutyl]oxy}acetamido)bicyclo[2.2.2]octan-1-yl]-3,4-dihydro-2H-1-benzopyran-2-carboxamide] | 10 to 50 nM |
| O=C(NC12CC(C3=NOC([C@H]4C[C@@H](OC(F)(F)F)C4)C3)(C1)C2)[C@H]1C[C@@H](O)c2cc(Cl)ccc2O1 (stereo partly drawn) [Compound 232, (2R,4R)-6-chloro-4-hydroxy-N-{3-(5-[cis-3-(trifluoromethoxy)cyclobutyl]-4,5-dihydro-1,2-oxazol-3-yl}bicyclo[1.1.1]pentan-1-yl)-3,4-dihydro-2H-1-benzopyran-2-carboxamide] | 50 to 250 nM |
